Values of other authors in US20190210972A1, “METHODS OF RESOLVING RACEMIC MIXTURE TO OBTAIN (-)-HUPERZINE A” (AMPHASTAR NANJING PHARMACEUTICALS INC., priority 2014, published 2019).

System: patients with Alzheimer's disease
Conditions: double-blind, placebo-controlled

C/C=C1\C2C=C(C)C[C@]1(N)c1ccc(=O)[nH]c1C2 (single isomer, unassigned; (-)) [(−)-Huperzine A]
cognitive function and quality of life of trial participants: Significant improvements
